Molecules are shown by their SMILES. Some results are limits rather than exact numbers.

Consider two compounds from publication PMC9862597, “Anti-Colorectal Cancer Effects of a Novel Camptothecin Derivative PCC0208037 In Vitro and In Vivo” (Pharmaceuticals, 2022).

For one data set, the system named is CT-26 cells. The data set can be described thus: MTT cell viability assay, CT-26. The format is cell-based. Particulars: Mus musculus, CT26; CT-26, MTT, 72 h, n = 3. On the procedure: (§1) Cell viability was assessed using the MTT assay, as previously reported. Briefly, colorectal cancer cells (LS180, HCT116, CT-26, and HT-29 cells) were plated onto 96-well plates at 3000 cells per well and incubated overnight. […] Control cells were treated with DMSO at a final concentration of 0.1%. Cells were cultured with the compounds or medium for 72 h. The cells were then treated with MTT. The medium was then decanted, and DMSO was added and shaken until the color reaction was complete. The […] were read using a Molecular Devices SpectraMax M5 (San Jose, CA, USA) at OD570 nm. The half maximal inhibitory concentration (IC50) was calculated.
(Tetrazolium dyes change colour on reduction, which living cells bring about.)

The test system of the next data set is LS180 xenograft tumor. As to the kind of experiment: Subcutaneous LS180 xenograft model. Particulars: PCC0208037 5, 10, 20 mg/kg; CPT-11 10 mg/kg; i.v. once every 3 days. Type of data set: in vivo, nude mice. On the procedure: To establish xenograft tumor models, RPMI 1640 and Matrigel were mixed at a 1:1 ratio. Colorectal cancer cells (LS180: 5 × 10^6 cells) were added to 0.1 mL of the mixture, and male nude mice were subcutaneously injected with colorectal cancer cells on the right side. […] Tumor volume and animal weight were measured every 3 days and continued until the end of the experiments. All mice were euthanized by cervical dislocation at the end of the experiment, and the xenograft tumors were removed and weighed.
Figure 8 Anti-tumor effect of PCC0208037 in the LS180 xenograft tumor model. (A) Representative tumors removed after the last treatment in each treatment group. (B) Body weight gain curves of mice bearing an LS180 xenograft tumor. (C) Tumor weights in the different groups of mice after 15 d of treatment.

A further data set deals with HCT116 cells. As to the kind of experiment: MTT cell viability assay, HCT116. Type of data set: cell-based. To be noted: Homo sapiens, HCT-116; HCT116, MTT, 72 h, n = 3; read-out: IC50. On the procedure:
as §1

A further data set has as its system LS180 cells. The data set can be described thus: MTT cell viability assay, LS180. Particulars: Homo sapiens; LS180, MTT, 72 h, n = 3; read-out: IC50. The format is cell-based. On the procedure: as §1
Data set [1] can be described thus: PCC0208037- and CPT-11-induced toxicity in mice. Particulars: 50 mg/kg/day i.p. for four days.
Data set [2] in a line: Pharmacokinetic study, single intravenous dose. Particulars: for AUCinf / AUClast: n = 3. On the procedure:
Blood samples were collected at 0.083 h, 0.25 h, 0.5 h, 1 h, 2 h, 4 h, 8 h, and 12 h after administration. Plasma was prepared after centrifugation at 6000× g for 5 min and then stored at −20 °C for further analysis.

In another data set the test system is HT-29 cells. The data set can be described thus: MTT cell viability assay, HT-29. Type of data set: cell-based. To be noted: Homo sapiens; HT-29, MTT, 72 h, n = 3. On the procedure: as §1
The target of the next data set is T1, recombinant Topo I (Homo sapiens, UniProt P11387).
T1 construct: purchased TopoGEN, Inc (Buena Vista, CO, USA) TG1018
T1 sequence (P11387 1-765): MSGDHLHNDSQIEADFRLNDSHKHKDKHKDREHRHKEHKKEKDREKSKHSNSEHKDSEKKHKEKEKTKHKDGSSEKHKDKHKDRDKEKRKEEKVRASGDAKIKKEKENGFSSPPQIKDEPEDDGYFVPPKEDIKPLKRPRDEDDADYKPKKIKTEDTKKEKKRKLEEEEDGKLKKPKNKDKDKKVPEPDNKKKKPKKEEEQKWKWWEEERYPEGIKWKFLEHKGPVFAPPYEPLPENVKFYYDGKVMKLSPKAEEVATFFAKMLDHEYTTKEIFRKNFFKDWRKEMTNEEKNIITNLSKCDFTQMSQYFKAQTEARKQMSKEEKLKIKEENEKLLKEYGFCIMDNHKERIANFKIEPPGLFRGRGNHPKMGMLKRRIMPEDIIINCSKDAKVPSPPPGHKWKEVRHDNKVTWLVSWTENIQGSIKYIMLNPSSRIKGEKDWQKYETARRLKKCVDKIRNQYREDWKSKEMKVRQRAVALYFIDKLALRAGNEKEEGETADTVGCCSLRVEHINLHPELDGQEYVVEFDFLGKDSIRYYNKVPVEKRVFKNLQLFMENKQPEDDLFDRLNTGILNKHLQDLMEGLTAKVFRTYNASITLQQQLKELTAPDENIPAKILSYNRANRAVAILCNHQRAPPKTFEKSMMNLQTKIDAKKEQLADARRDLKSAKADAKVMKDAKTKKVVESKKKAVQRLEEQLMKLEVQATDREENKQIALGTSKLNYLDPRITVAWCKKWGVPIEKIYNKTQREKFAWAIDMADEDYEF
As to the kind of experiment: Topoisomerase I activity assay (DNA relaxation). The format is biochemical. To be noted: PCC0208037 100 and 10 nmol/L, SN-38 100 nmol/L, CPT-11 100 nmol/L; 30 min, 37 °C. On the procedure: To determine whether PCC0208037 inhibited Topo I activity, a DNA relaxation assay was conducted. In this assay, supercoiled plasmid DNA was relaxed and nicked by recombinant Topo I, while no nicked DNA would be found when the Topo I enzyme was inhibited.
A Topoisomerase I Drug Screening Kit was used to detect the inhibitory activity of PCC0208037 against Topo I in the cell-free system. 1 IU Topo I and 250 ng of supercoiled plasmid DNA were pre-incubated with DMSO, PCC0208037 (100 nmol/L and 10 nmol/L), SN-38(100 nmol/L), or CPT (100 nmol/L) in a reaction buffer with a final volume of 20 μL and incubated for 30 min at 37 °C; then, the reaction was stopped by the addition of 2 ul of 10% SDS. Then, proteinase K was added to 50 ug/mL, incubated for 15 min at 37 °C, and 0.1 vol. of a loading buffer (0.25% bromophenol blue, 50% glycerol) was added. The supercoiled, relaxed, or nicked DNA was separated by 1% agarose gel in a 1 TAE (Tris-Acetate-EDTA) buffer. Ethidium bromide-stained agarose gel was photographed using Gel Doc XR.
Figure 4 Inhibition of Topo I activity by PCC0208037. […] Plasmid DNA was separated by an agarose gel and stained with ethidium bromide.

The mark [3] stands for this setting: BALB/c, mouse, plasma, iv, 10 mg/kg.
[4] abbreviates: CPT-11 in plasma, 10 mg/kg CPT-11 i.v.
Where [5] appears, read: metabolite SN-38 in plasma after 10 mg/kg CPT-11 i.v.
Where [6] appears, read: metabolite SN-38 in plasma after 10.65 mg/kg PCC0208037 i.v.

For the compound `CCc1c2c(nc3ccc(OC(=O)N4CCC(N5CCCCC5)CC4)cc13)-c1cc3c(c(=O)n1C2)COC(=O)[C@]3(O)CC` [CPT-11, Irinotecan], the 50% inhibitory concentration (IC50) in the data set on CT-26 cells is > 50 µM; with HCT116 cells, > 50 µM; with LS180 cells, 3.17 ± 0.58 µM; in the data set on HT-29 cells, > 50 µM. Besides, the “effect on body weight of tumor-bearing mice” value in the data set with LS180 xenograft tumor is recorded as “significant reduction in body weight”. The “colorectal tissue histomorphological examination (H&E)” value in data set [1] (colon after 7 days) is “extensive colorectal tissue damage”. Moreover, the diarrhea score entry in data set [1] (later stage of study, p < 0.05 on 7th day) is on record as “higher in the CPT-11-treated mice than in the PCC0208037-treated mice”. The mortality result in data set [1] (seven-day observation) was “No animal died”. Also, in data set [1] (seven-day observation), the “recovery of body weight and food intake decrease” value is “no apparent trend of recovery was observed”. In addition, the highest concentration (Cmax) in data set [2] (setting [3]) was determined as 481 ± 112 ng/mL. For the same compound, in data set [2] (setting [3]), the time of peak concentration (Tmax) was determined as 3.24 ± 2.19 h. The compound further registered an AUCinf in data set [2] (setting [4]) of 393.1 ± 64.4 H * ng/mL. The compound further registered an AUClast in data set [2] (setting [4]) of 360.5 ±52.9 H * ng/mL.

Turning to `CCc1c2c(nc3ccc(O)cc13)-c1cc3c(c(=O)n1C2)COC(=O)[C@]3(O)CC` [SN-38], the IC50 was determined as 0.44 ± 0.66 µM in the data set on CT-26 cells, 3.58 ± 0.21 µM in the data set on HCT116 cells, 0.12 ± 0.01 µM in the data set with LS180 cells and 0.35 ± 0.02 µM in the data set on HT-29 cells. For the same compound, at recombinant Topo I, the “inhibition of Topo I activity (supercoiled plasmid DNA relaxation)” value was “Topo I activity was inhibited”. For the same compound, the AUCinf is recorded as 431.5 ± 62.5 H * ng/mL in data set [2] (setting [5]) and 919.7 ± 176.1 H * ng/mL in data set [2] (setting [6]). For the same compound, the AUClast turned out to be 394.6 ± 46.32 H * ng/mL in data set [2] (setting [5]) and 905.5 ± 173.7 H * ng/mL in data set [2] (setting [6]).

As usually defined, the IC50 is the concentration that inhibits the measured activity by half. In general, Cmax refers to the maximum level reached in the sampled fluid or tissue. By Tmax is commonly meant the time at which the peak concentration occurs.
